In patent US20150080438A1, “6,7-Dihydro-5H-benzo[7]annulene derivatives, processes for their preparation, pharmaceutical products comprising them and their use for preparing medicaments” (Bayer Intellectual Property GmbH, priority 2011, published 2015):

Target: T1, oestrogen receptor (ER) (Homo sapiens, UniProt P03372)
T1 construct: These MVLN cells express, along with the functional oestrogen receptor (ER), a reporter construct; endogenous in cells; host or cells: MVLN cells (MCF7 derivative with ER-responsive luciferase reporter)
T1 sequence (P03372 1-595): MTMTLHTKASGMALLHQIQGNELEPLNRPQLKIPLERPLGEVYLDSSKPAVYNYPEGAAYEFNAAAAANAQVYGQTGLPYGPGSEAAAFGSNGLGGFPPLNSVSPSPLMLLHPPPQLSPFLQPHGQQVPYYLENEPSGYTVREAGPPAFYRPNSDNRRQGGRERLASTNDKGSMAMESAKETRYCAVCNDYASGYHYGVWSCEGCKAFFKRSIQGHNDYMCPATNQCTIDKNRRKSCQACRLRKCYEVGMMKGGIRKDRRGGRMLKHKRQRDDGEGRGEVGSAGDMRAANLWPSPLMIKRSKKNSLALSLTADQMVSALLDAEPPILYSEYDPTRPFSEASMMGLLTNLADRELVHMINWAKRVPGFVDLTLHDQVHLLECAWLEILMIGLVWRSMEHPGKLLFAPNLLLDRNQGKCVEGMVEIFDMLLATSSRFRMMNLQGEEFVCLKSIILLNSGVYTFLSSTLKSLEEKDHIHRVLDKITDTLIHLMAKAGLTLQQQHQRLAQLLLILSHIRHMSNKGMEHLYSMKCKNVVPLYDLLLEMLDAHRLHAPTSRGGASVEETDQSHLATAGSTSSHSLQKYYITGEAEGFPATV
Assay: Anti-oestrogenic action in MVLN cells (inhibition of estradiol-induced luciferase, transactivation antagonism)
Type: cell-based
Conditions: inhibition of estradiol-induced luciferase activity, read-out: Anti-oestrogenic action in vitro: MVLN transactivation antagonism IC50
From the text: The anti-oestrogenic action of the claimed pharmacological compounds was investigated in so-called MVLN cells in vitro. MVLN cells are derivatives of the hormone-responsive MCF7 breast cancer cells known by a person skilled in the art. These MVLN cells express, along with the functional oestrogen receptor (ER), a reporter construct, which under ER-activation expresses luciferase. Determination of the activity of the induced luciferase permits a direct conclusion on the oestrogen properties of substances. To investigate the anti-oestrogenic properties of the pharmacological compounds, they were investigated in the presence of oestrogen for their potential for inhibiting the luciferase signal induced by estradiol.
The claimed pharmacological test substances were investigated in MVLN cells for their anti-oestrogenic potential, as described (see Table 2).

Row | SMILES | IC50
1 | CN(CCCCCCC1=C(c2ccccc2)CCCc2c1ccc(O)c2Cl)CCCCS(=O)(=O)CCC(F)(F)F [Example 109, 4-Chloro-9-[6-(methyl{4-[(3,3,3-trifluoropropyl)sulphonyl]butyl}amino)hexyl]-8-phenyl-6,7-dihydro-5H-benzo[7]annulen-3-ol] | 87 nM
2 | CN(CCCCCCC1=C(c2ccccc2)CCCc2c1ccc(O)c2Cl)CCC[S+]([O-])CCCC(F)(F)C(F)(F)F (racemic) [Example 104, 4-Chloro-9-[6-(methyl{3-[(RS)-(4,4,5,5,5-pentafluoropentyl)sulphinyl]propyl}amino)hexyl]-8-phenyl-6,7-dihydro-5H-benzo[7]annulen-3-ol] | 25 nM
3 | CN(CCCCCCC1=C(c2ccc(F)c(O)c2)CCCc2cc(O)c(F)cc21)CCCS(=O)(=O)CCC(F)(F)F [Example 126, 2-Fluoro-8-(4-fluoro-3-hydroxyphenyl)-9-[6-(methyl{3-[(3,3,3-trifluoropropyl)sulphonyl]propyl}amino)hexyl]-6,7-dihydro-5H-benzo[7]annulen-3-ol] | 32 nM
4 | CN(CCCCCCC1=C(c2cccc(O)c2)CCCc2cc(O)ccc21)CCCCCC[S+]([O-])CCCC(F)(F)C(F)(F)F (racemic) [Example 18, 8-(3-Hydroxyphenyl)-9-[6-(methyl{6-[(RS)-(4,4,5,5,5-pentafluoropentyl)sulphinyl]hexyl}amino)hexyl]-6,7-dihydro-5H-benzo[7]annulen-3-ol] | 2 nM
5 | CN(CCCCCCC1=C(c2ccccc2)CCCc2cc(O)ccc21)CCC[S+]([O-])CCC(F)(F)C(F)(F)F (racemic) [Example 61, 9-[6-(Methyl{3-[(RS)-(3,3,4,4,4-pentafluorobutyl)sulphinyl]propyl}amino)hexyl]-8-phenyl-6,7-dihydro-5H-benzo[7]annulen-3-ol] | 9 nM
6 | CN(CCCCCCC1=C(c2ccccc2)CCCc2cc(O)ccc21)CCCS(=O)(=O)CCCC(F)(F)F [Example 57, 9-[6-(Methyl{3-[(4,4,4-trifluorobutyl)sulphonyl]propyl}amino)hexyl]-8-phenyl-6,7-dihydro-5H-benzo[7]annulen-3-ol] | 5 nM
7 | CN(CCCCCCC1=C(c2cccc(O)c2)CCCc2cc(O)ccc21)CCCS(=O)(=O)CCC(F)(F)C(F)(F)F [Example 54, 8-(3-Hydroxyphenyl)-9-[6-(methyl{3-[(3,3,4,4,4-pentafluorobutyl)sulphonyl]propyl}amino)hexyl]-6,7-dihydro-5H-benzo[7]annulen-3-ol] | 2 nM
8 | CN(CCCCCCC1=C(c2ccc(F)c(O)c2)CCCc2cc(O)ccc21)CCCCS(=O)(=O)CCC(F)(F)F [Example 110, 8-(4-Fluoro-3-hydroxyphenyl)-9-[6-(methyl{4-[(3,3,3-trifluoropropyl)sulphonyl]butyl}amino)hexyl]-6,7-dihydro-5H-benzo[7]annulen-3-ol] | 5 nM
9 | COCCCN(CCCCCCC1=C(c2ccc(F)c(O)c2)CCCc2cc(O)c(F)cc21)CCC[S+]([O-])CCCC(F)(F)C(F)(F)F (racemic) [Example 132, 2-Fluoro-8-(4-fluoro-3-hydroxyphenyl)-9-{6-[(3-methoxypropyl){3-[(RS)-(4,4,5,5,5-pentafluoropentyl)sulphinyl]propyl}amino]hexyl}-6,7-dihydro-5H-benzo[7]annulen-3-ol] | 5 nM
10 | [O-][S+](CCCN(CCO)CCCCCCC1=C(c2ccccc2)CCCc2cc(O)ccc21)CCC(F)(F)F (racemic) [Example 78, 9-{6-[(2-Hydroxyethyl){3-[(RS)-(3,3,3-trifluoropropyl)sulphinyl]propyl}amino]hexyl}-8-phenyl-6,7-dihydro-5H-benzo[7]annulen-3-ol] | 11 nM
11 | CC(C)(O)CN(CCCCCCC1=C(c2cccc(O)c2)CCCc2cc(O)ccc21)CCC[S+]([O-])CCC(F)(F)F (racemic) [Example 97, 9-{6-[(2-Hydroxy-2-methylpropyl){3-[(RS)-(3,3,3-trifluoropropyl)sulphinyl]propyl}amino]hexyl}-8-(3-hydroxyphenyl)-6,7-dihydro-5H-benzo[7]annulen-3-ol] | 2 nM
